Assay results taken from PubChem BioAssay AID248 (DTP/NCI, 2004).
Where “and” joins values, the source holds several entries; their conditions need not be identical. Equal values may be shown once. Inconclusive results and toxic doses are left out. Cut-off read from the data, not from the text of the source: active = T/C of 150% or more; inactive = T/C below 125%.

Test system: L1210 leukemia ip in BDF1 mice, survival T/C
Assay: NCI In Vivo Anticancer Drug Screen. Data for tumor model L1210 Leukemia (intraperitoneal) in B6D2F1 (BDF1) mice
Conditions: endpoint: mean survival time, higher = longer survival
Procedure, shortened: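 Mice bearing the transplanted tumor received compound or vehicle. Survival of the treated group was divided by that of the vehicle-treated control group to give the ratio.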

[1] = dose: 100.0 mg/kg/injection, schedule: Q01DX009 (ip), vehicle: Klucel (hydroxypropylcellulose) (HPC)
[2] = dose: 200.0 mg/kg/injection, schedule: Q01DX009 (ip), vehicle: Klucel (hydroxypropylcellulose) (HPC)
[3] = dose: 400.0 mg/kg/injection, schedule: Q01DX009 (ip), vehicle: Klucel (hydroxypropylcellulose) (HPC)
[4] = dose: 100.0 mg/kg/injection, schedule: Q04DX003 (ip), vehicle: Klucel (hydroxypropylcellulose) (HPC)
[5] = dose: 200.0 mg/kg/injection, schedule: Q04DX003 (ip), vehicle: Klucel (hydroxypropylcellulose) (HPC)
[6] = dose: 400.0 mg/kg/injection, schedule: Q04DX003 (ip), vehicle: Klucel (hydroxypropylcellulose) (HPC)
[7] = dose: 100.0 mg/kg/injection, schedule: Q04DX003 (ip), vehicle: saline
[8] = dose: 200.0 mg/kg/injection, schedule: Q04DX003 (ip), vehicle: saline
[9] = dose: 25.0 mg/kg/injection, schedule: Q01DX009 (ip), vehicle: saline with Tween-80
[10] = dose: 50.0 mg/kg/injection, schedule: Q01DX009 (ip), vehicle: saline with Tween-80
[11] = dose: 100.0 mg/kg/injection, schedule: Q01DX009 (ip), vehicle: saline with Tween-80
[12] = dose: 100.0 mg/kg/injection, schedule: Q04DX003 (ip), vehicle: saline with Tween-80
[13] = dose: 100.0 mg/kg/injection, schedule: Q01DX001 (ip), vehicle: carboxymethylcellulose (CMC)
[14] = dose: 200.0 mg/kg/injection, schedule: Q01DX001 (ip), vehicle: carboxymethylcellulose (CMC)
[15] = dose: 400.0 mg/kg/injection, schedule: Q01DX001 (ip), vehicle: carboxymethylcellulose (CMC)
[16] = dose: 100.0 mg/kg/injection, schedule: Q01DX001 (ip), vehicle: saline
[17] = dose: 200.0 mg/kg/injection, schedule: Q01DX001 (ip), vehicle: saline
[18] = dose: 400.0 mg/kg/injection, schedule: Q01DX001 (ip), vehicle: saline
[19] = dose: 50.0 mg/kg/injection, schedule: Q01DX009 (ip), vehicle: saline
[20] = dose: 100.0 mg/kg/injection, schedule: Q01DX009 (ip), vehicle: saline
[21] = dose: 100.0 mg/kg/injection, schedule: Q04DX002 (ip), vehicle: Klucel (hydroxypropylcellulose) (HPC)
[22] = dose: 200.0 mg/kg/injection, schedule: Q04DX002 (ip), vehicle: Klucel (hydroxypropylcellulose) (HPC)
[23] = dose: 400.0 mg/kg/injection, schedule: Q04DX002 (ip), vehicle: Klucel (hydroxypropylcellulose) (HPC)
[24] = dose: 200.0 mg/kg/injection, schedule: Q04DX003 (ip), vehicle: saline with Tween-80

Measured: T/C

CCN(CC)C(=O)c1ccc(COc2cc(Cl)cc(Cl)c2)cc1
inactive: [1] 94 % of control | [2] 97 % of control | [3] 96 % of control

COc1ccc([N+](=O)[O-])cc1NC(=O)NCCCl
inactive: dose: 75.0 mg/kg/injection, schedule: Q01DX009 (ip), vehicle: Klucel (hydroxypropylcellulose) (HPC) 108 % of control | [4] 93 % of control | dose: 150.0 mg/kg/injection, schedule: Q01DX009 (ip), vehicle: Klucel (hydroxypropylcellulose) (HPC) 95 % of control | [5] 96 % of control | dose: 300.0 mg/kg/injection, schedule: Q01DX009 (ip), vehicle: Klucel (hydroxypropylcellulose) (HPC) 102 % of control | [6] 98 % of control

COc1cc(N)ccc1C(=O)O
inactive: [7] 94 % of control | [8] 96 % of control | dose: 400.0 mg/kg/injection, schedule: Q04DX003 (ip), vehicle: saline 97 % of control

CCCN1C(=O)C=CC1=O
inactive: [9] 96 % of control | dose: 25.0 mg/kg/injection, schedule: Q04DX003 (ip), vehicle: saline with Tween-80 91 % of control | [10] 96 % of control | dose: 50.0 mg/kg/injection, schedule: Q04DX003 (ip), vehicle: saline with Tween-80 92 % of control | [11] 95 % of control | [12] 97 % of control

O=C(NCc1ccccc1)C(Cc1ccccc1)(Cc1ccccc1)C(=O)NCc1ccccc1
inactive: [13] 92 % of control | [14] 90 % of control | [15] 92 % of control

NC(=O)NC(O)C(Cl)(Cl)Cl (configuration not stated)
inactive: [1] 100 % of control | [2] 100 % of control | [3] 93 % of control

O=C1CCCCC1Nc1ccc(Br)cc1 (configuration not stated)
inactive: [16] 98 % of control | [17] 98 % of control | [18] 98 % of control

CC(C)CCOC(=O)N(C)c1ccccc1
inactive: dose: 75.0 mg/kg/injection, schedule: Q04DX002 (ip), vehicle: Klucel (hydroxypropylcellulose) (HPC) 101 % of control | dose: 150.0 mg/kg/injection, schedule: Q04DX002 (ip), vehicle: Klucel (hydroxypropylcellulose) (HPC) 105 % of control | dose: 300.0 mg/kg/injection, schedule: Q04DX002 (ip), vehicle: Klucel (hydroxypropylcellulose) (HPC) 105 % of control

CCC(=O)C(CCN1CCC(n2c(=O)[nH]c3ccccc32)CC1)(c1ccccc1)c1ccccc1
inactive: dose: 0.2 mg/kg/injection, schedule: Q01DX009 (ip), vehicle: saline with Tween-80 90 % of control | dose: 0.4 mg/kg/injection, schedule: Q01DX009 (ip), vehicle: saline with Tween-80 89 % of control | dose: 0.78 mg/kg/injection, schedule: Q01DX009 (ip), vehicle: saline with Tween-80 88 % of control | dose: 0.8 mg/kg/injection, schedule: Q01DX009 (ip), vehicle: saline with Tween-80 104 % of control | dose: 3.13 mg/kg/injection, schedule: Q01DX009 (ip), vehicle: saline with Tween-80 98 % of control | dose: 6.25 mg/kg/injection, schedule: Q01DX009 (ip), vehicle: saline with Tween-80 93 % of control and 89 % of control | dose: 12.5 mg/kg/injection, schedule: Q01DX009 (ip), vehicle: saline with Tween-80 95 % of control | [9] 90 % of control | [10] 86 % of control | [11] 96 % of control and 92 % of control

Cc1ccc(NC(=O)Nc2ccccc2C)c(C)c1
inactive: [1] 93 % of control | [4] 103 % of control | [2] 90 % of control | [5] 91 % of control | [6] 96 % of control

NOCCCCON
inactive: dose: 25.0 mg/kg/injection, schedule: Q01DX009 (ip), vehicle: saline 98 % of control and 103 % of control | dose: 25.0 mg/kg/injection, schedule: Q04DX002 (ip), vehicle: saline 93 % of control and 97 % of control | [19] 95 % of control and 97 % of control | dose: 50.0 mg/kg/injection, schedule: Q04DX002 (ip), vehicle: saline 96 % of control and 101 % of control | dose: 50.0 mg/kg/injection, schedule: Q04DX003 (ip), vehicle: saline 98 % of control | [16] 101 % of control | [20] 100 % of control [middle of 4 runs] | dose: 100.0 mg/kg/injection, schedule: Q04DX002 (ip), vehicle: saline 93 % of control and 94 % of control | [7] 95 % of control | [17] 102 % of control | dose: 200.0 mg/kg/injection, schedule: Q01DX009 (ip), vehicle: saline 95 % of control and 102 % of control | dose: 200.0 mg/kg/injection, schedule: Q04DX002 (ip), vehicle: saline 96 % of control and 105 % of control | [8] 93 % of control | [18] 104 % of control | dose: 400.0 mg/kg/injection, schedule: Q04DX002 (ip), vehicle: saline 98 % of control and 110 % of control

CC(C)CCN1C(c2ccccc2)=CN(Cc2ccccc2)C=C1c1ccccc1
inactive: [21] 100 % of control | [22] 92 % of control | [23] 95 % of control

C(=C\SCc1ccccc1)/SCc1ccccc1
inactive: [21] 103 % of control | [12] 97 % of control | [22] 103 % of control | [24] 101 % of control | [23] 96 % of control | dose: 400.0 mg/kg/injection, schedule: Q04DX003 (ip), vehicle: saline with Tween-80 102 % of control

NCC(O)C(F)(F)C(F)(F)C(F)(F)F (configuration not stated)
inactive: [13] 103 % of control | [14] 103 % of control | [15] 95 % of control

O=C(Nc1ccccc1)Oc1c(Cl)cc(Cl)c(Cl)c1[N+](=O)[O-]
inactive: dose: 25.0 mg/kg/injection, schedule: Q01DX009 (ip), vehicle: Klucel (hydroxypropylcellulose) (HPC) 100 % of control | dose: 50.0 mg/kg/injection, schedule: Q01DX009 (ip), vehicle: Klucel (hydroxypropylcellulose) (HPC) 93 % of control | [1] 91 % of control

CCCCCCC/C=N/NC(=O)c1ccccc1
inactive: [4] 105 % of control | [5] 109 % of control | [6] 98 % of control

NS(=O)(=O)c1ccc(Cl)cc1
inactive: [19] 95 % of control | [20] 102 % of control | [21] 103 % of control | [12] 104 % of control | [22] 103 % of control | [24] 112 % of control | [23] 103 % of control

Nc1c(N=O)c(=O)n(Cc2ccccc2)c(=O)n1Cc1ccccc1
inactive: dose: 50.0 mg/kg/injection, schedule: Q01DX001 (ip), vehicle: carboxymethylcellulose (CMC) 103 % of control | [13] 105 % of control | [14] 97 % of control | [15] 100 % of control

C/C=C/c1cc(C)cc(C)c1OC(C)CC (configuration not stated)
inactive: dose: 100.0 mg/kg/injection, schedule: Q04DX002 (ip), vehicle: saline with Tween-80 104 % of control | dose: 200.0 mg/kg/injection, schedule: Q04DX002 (ip), vehicle: saline with Tween-80 93 % of control

COc1ccc(NC(Nc2ccc(OC)cc2)C(Cl)(Cl)Cl)cc1
inactive: dose: 100.0 mg/kg/injection, schedule: Q01DX009 (ip), vehicle: other 90 % of control | dose: 100.0 mg/kg/injection, schedule: Q04DX003 (ip), vehicle: other 87 % of control | dose: 200.0 mg/kg/injection, schedule: Q01DX009 (ip), vehicle: other 93 % of control | dose: 200.0 mg/kg/injection, schedule: Q04DX003 (ip), vehicle: other 97 % of control | dose: 400.0 mg/kg/injection, schedule: Q01DX009 (ip), vehicle: other 123 % of control | dose: 400.0 mg/kg/injection, schedule: Q04DX003 (ip), vehicle: other 114 % of control
